For this test, the target named is MAPK14 (human) (UniProt Q16539). Put plainly: Inhibition of MAPK14 Kinase Activity.
MAPK14 (human), sequence (Q16539 whole entry, looked up): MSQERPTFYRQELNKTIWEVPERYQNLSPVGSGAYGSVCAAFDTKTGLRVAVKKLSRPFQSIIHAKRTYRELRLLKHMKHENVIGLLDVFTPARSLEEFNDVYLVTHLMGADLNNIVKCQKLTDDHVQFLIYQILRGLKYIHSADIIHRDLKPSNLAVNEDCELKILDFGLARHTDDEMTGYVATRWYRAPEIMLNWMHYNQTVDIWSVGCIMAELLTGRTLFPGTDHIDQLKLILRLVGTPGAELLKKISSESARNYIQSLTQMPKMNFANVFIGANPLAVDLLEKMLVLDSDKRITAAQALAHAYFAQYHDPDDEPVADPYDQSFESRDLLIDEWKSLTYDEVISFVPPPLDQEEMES

A word on the IC50: it is the concentration needed to halve the response being measured. Turning to `C#CCNC(=O)c1csc(-c2c(-c3ccc(F)cc3)ncn2C2CCN(C(=O)CO)CC2)n1`, the IC50 was at most 1 µM.

`Cc1cc(C(=O)NCc2nc(-c3ccc(F)cc3)c(-c3nc(C(=O)NC(C)C)cs3)o2)n[nH]1` registered an IC50 of at most 1 µM. Molecule `CC(C)NC(=O)c1csc(-c2oc(CNC(=O)c3cc(F)c(F)cc3Cl)nc2-c2ccc(F)cc2)n1` yielded an IC50 of at most 1 µM. To `CC(=O)C(=O)N1CCC(c2[nH]nc(-c3ccc(F)cc3)c2-c2nc(C(=O)NC(C)C)cs2)CC1` belongs at most 1 µM; to `Cc1nc(-c2ccc(F)cc2)c(-c2nc(C(=O)NCc3cccc(C(F)(F)F)c3)cs2)s1`, at most 1 µM; to `CC(=O)Nc1ccc(NC(=O)c2csc(-c3sc(C)nc3-c3ccc(F)cc3)n2)cn1`, at most 1 µM. The figure for `Cc1cccc(CCC(=O)N2CCN(Cc3nc(-c4ccc(F)cc4)c(-c4nc(C(=O)NC(C)C)cs4)o3)CC2)c1` is at most 1 µM; for `CCCCOc1ccc(C(=O)N2CCN(Cc3nc(-c4ccc(F)cc4)c(-c4nc(C(=O)NC(C)C)cs4)o3)CC2)cc1` it is at most 1 µM; for `Cc1nc(-c2ccc(F)cc2)c(-c2nc(C(=O)NC3CCCCCC3)cs2)s1` it is at most 1 µM. To `CC(C)NC(=O)c1csc(-c2oc(CNC(=O)c3c(Cl)cc(Cl)cc3Cl)nc2-c2ccc(F)cc2)n1` belongs at most 1 µM. `Cc1nc(-c2ccc(F)cc2)c(-c2nc(C(=O)NCc3ccccc3F)cs2)s1` gave a half-inhibitory concentration (IC50) of at most 1 µM. The figure for `Cc1ccccc1C(=O)N1CCC(c2[nH]nc(-c3ccc(F)cc3)c2-c2nc(C(=O)NC(C)C)cs2)CC1` is at most 1 µM; for `CC(C)NC(=O)c1csc(-c2c(-c3ccc(F)cc3)noc2CN2CCCC2CO)n1` (stereo not given) it is at most 1 µM; for `COCC(C)NC(=O)c1csc(-c2sc(C)nc2-c2ccc(F)cc2)n1` (stereo not given) it is at most 1 µM.

With `CC(C)NC(=O)c1csc(-c2c(-c3ccccc3)n[nH]c2C2CCN(C(=O)c3ccc(Cl)c([N+](=O)[O-])c3)CC2)n1`, the IC50 was at most 1 µM. On to `Cc1cccc(C(=O)N2CCN(Cc3nc(-c4ccc(F)cc4)c(-c4nc(C(=O)NC(C)C)cs4)o3)CC2)c1O`, for which the half-inhibitory concentration (IC50) is at most 1 µM. The figure for `CC(C)NC(=O)c1csc(-c2oc(CNC(=O)C=Cc3ccccc3F)nc2-c2ccc(F)cc2)n1` is at most 1 µM. `CCC(C)NC(=O)c1csc(-c2c(-c3ccc(F)cc3)n[nH]c2C2CCNCC2)n1` (stereo not given) had an IC50 of at most 1 µM.

`O=C(NCCO)c1csc(-c2c(-c3ccc(F)cc3)n[nH]c2C2CCNCC2)n1` displayed an IC50 of at most 1 µM.

The molecule `CC(C)NC(=O)c1csc(-c2oc(CNC(=O)c3ccccc3C(F)(F)F)nc2-c2ccc(F)cc2)n1` came in with a half-inhibitory concentration (IC50) of at most 1 µM. With `Cc1nc(-c2ccc(F)cc2)c(-c2nc(C(=O)NCCc3cccc(F)c3)cs2)s1`, the IC50 is at most 1 µM. To `Cc1nc(-c2ccc(F)cc2)c(-c2nc(C(=O)NC3CCN(Cc4ccccc4)C3)cs2)s1` (stereo not given) belongs at most 1 µM.

As for `COc1ccc(CNCc2nc(-c3ccc(F)cc3)c(-c3nc(C(=O)NC(C)C)cs3)o2)cc1O`, the IC50 was at most 1 µM.

In turn, `CC(=O)N1CCC(n2cnc(-c3ccc(Cl)cc3)c2-c2nc(C(=O)NC(C)C)cs2)CC1` displayed an IC50 of at most 1 µM. To `CC(=O)NCC(=O)NCc1nc(-c2ccc(F)cc2)c(-c2nc(C(=O)NC(C)C)cs2)o1` belongs at most 1 µM; to `Cc1cnc(CNC(=O)c2csc(-c3sc(C)nc3-c3ccc(F)cc3)n2)cn1`, at most 1 µM.

With `COc1cc(C=CC(=O)NCc2nc(-c3ccc(F)cc3)c(-c3nc(C(=O)NC(C)C)cs3)o2)ccc1O`, the 50% inhibitory concentration (IC50) is at most 1 µM. The figure for `Cc1nc(-c2ccc(F)cc2)c(-c2nc(C(=O)N3CCN(c4ccccc4C#N)CC3)cs2)s1` is at most 1 µM; for `CC(C)NC(=O)c1csc(-c2oc(CNC(=O)c3c4ccccc4cc4ccccc34)nc2-c2ccc(F)cc2)n1` it is at most 1 µM; for `COCCOCC(=O)N1CCC(c2[nH]nc(-c3ccc(F)cc3)c2-c2nc(C(=O)NC(C)C)cs2)CC1` it is at most 1 µM. The figure for `Cc1cccc(N2CCN(C(=O)c3csc(-c4sc(C)nc4-c4ccc(F)cc4)n3)CC2C)c1` (stereo not given) is at most 1 µM; for `CC(C)NC(=O)c1csc(-c2oc(CNC(=O)c3c(F)cccc3F)nc2-c2ccc(F)cc2)n1` it is at most 1 µM. The figure for `CC(C)NC(=O)c1csc(-c2oc(CN3CCN(C(=O)c4ccc(N(C)C=O)cc4)CC3)nc2-c2ccc(F)cc2)n1` is at most 1 µM; for `CC(C)NC(=O)c1csc(-c2oc(CNC(=O)c3cccnc3)nc2-c2ccc(F)cc2)n1` it is at most 1 µM; for `CC(C)NC(=O)c1csc(-c2[nH]c(N)nc2-c2ccc(F)cc2)n1` it is at most 1 µM. As to `CC(C)NC(=O)c1csc(-c2oc(CNC(=O)c3ccc(F)c([N+](=O)[O-])c3)nc2-c2ccc(F)cc2)n1`, the half-maximal inhibitory concentration (IC50) was at most 1 µM.

`CC(C)NC(=O)c1csc(-c2c(-c3ccc(F)cc3)noc2CN(C)CCc2ccccn2)n1` came in with a concentration for half-maximal inhibition (IC50) of at most 1 µM. The figure for `Cc1nc(-c2ccc(F)cc2)c(-c2nc(C(=O)NCc3ccc(F)c(Cl)c3)cs2)s1` is at most 1 µM; for `CCN(CC)c1ccc(C(=O)NCc2nc(-c3ccc(F)cc3)c(-c3nc(C(=O)NC(C)C)cs3)o2)cc1` it is at most 1 µM. The figure for `CCNC(=O)c1csc(-c2sc(C)nc2-c2ccc(F)cc2)n1` is at most 1 µM.

The molecule `CONC(=O)c1csc(-c2c(-c3ccc(F)cc3)n[nH]c2C2CCNCC2)n1` had an IC50 of at most 1 µM. To `CCC(CO)NC(=O)c1csc(-c2c(-c3ccc(F)cc3)n[nH]c2C2CCNCC2)n1` (stereo not given) belongs at most 1 µM; to `CC(C)NC(=O)c1csc(-c2oc(CNC(=O)c3ccncc3)nc2-c2ccc(F)cc2)n1`, at most 1 µM; to `CC(C)NC(=O)c1csc(-c2oc(CNC(=O)c3cscn3)nc2-c2ccc(F)cc2)n1`, at most 1 µM. To `COc1ccc(CNC(=O)c2csc(-c3c(-c4ccc(F)cc4)n[nH]c3C3CCNCC3)n2)cc1` belongs at most 1 µM.

`CC(C)NC(=O)c1csc(-c2oc(CNC(=O)c3ccc(Cl)cc3[N+](=O)[O-])nc2-c2ccc(F)cc2)n1` came in with an IC50 of at most 1 µM. To `COc1cc(CNC(=O)c2csc(-c3sc(C)nc3-c3ccc(F)cc3)n2)cc(OC)c1` belongs at most 1 µM. The figure for `CC(C)NC(=O)c1csc(-c2oc(CNC(=O)c3cccc(C#N)c3)nc2-c2ccc(F)cc2)n1` is at most 1 µM; for `CC(C)NC(=O)c1csc(-c2oc(CNC(=O)c3ccc(C=O)cc3)nc2-c2ccc(F)cc2)n1` it is at most 1 µM; for `COCc1onc(-c2ccc(Cl)cc2)c1-c1ccn(C(=O)NC(C)C)n1` it is at most 1 µM.

`Cc1nc(-c2ccc(F)cc2)c(-c2nc(C(=O)NCc3cccnc3)cs2)s1` yielded a 50% inhibitory concentration (IC50) of at most 1 µM. `Cc1nc(-c2ccc(F)cc2)c(-c2nc(C(=O)NCc3cccc(F)c3)cs2)s1` displayed an IC50 of at most 1 µM.

`CC(=O)NCc1nc(-c2ccc(F)cc2)c(-c2nc(C(=O)NC(C)C)cs2)[nH]1` yielded an IC50 of at most 1 µM. In turn, `CC(C)NC(=O)c1csc(-c2oc(CN3CCN(C(=O)c4cccc(Cl)c4[N+](=O)[O-])CC3)nc2-c2ccc(F)cc2)n1` displayed an IC50 of at most 1 µM. To `COc1cc(CN(C)C(=O)c2csc(-c3sc(C)nc3-c3ccc(F)cc3)n2)cc(OC)c1OC` belongs at most 1 µM; to `COc1cc(C=CC(=O)N2CCN(Cc3nc(-c4ccc(F)cc4)c(-c4nc(C(=O)NC(C)C)cs4)o3)CC2)ccc1O`, at most 1 µM; to `CC(C)NC(=O)c1csc(-c2[nH]c(CN3CCNCC3)nc2-c2ccc(F)cc2)n1`, at most 1 µM. To `Cc1ccc(CNC(=O)c2csc(-c3sc(C)nc3-c3ccc(F)cc3)n2)cc1` belongs at most 1 µM. To `CC(C)NC(=O)c1csc(-c2oc(CNC(=O)CCc3cccc(C(F)(F)F)c3)nc2-c2ccc(F)cc2)n1` belongs at most 1 µM. On to `CC(C)CC(NC(=O)OC(C)(C)C)C(=O)N1CCC(c2[nH]nc(-c3ccc(F)cc3)c2-c2nc(C(=O)NC(C)C)cs2)CC1` (stereo not given), for which the IC50 was at most 1 µM.

The molecule `CC(C)NC(=O)c1csc(-c2oc(CBr)nc2-c2ccc(F)cc2)n1` came in with an IC50 of at most 1 µM. The figure for `CC(C)NC(=O)c1csc(-c2oc(CNC(=O)c3cc(Cl)ccc3[N+](=O)[O-])nc2-c2ccc(F)cc2)n1` is at most 1 µM. On to `CC(C)NC(=O)c1csc(-c2oc(CNC(=O)CC#N)nc2-c2ccc(F)cc2)n1`, for which the IC50 was at most 1 µM. As to `COC[C@H]1CCCN1C(=O)c1csc(-c2sc(C)nc2-c2ccc(F)cc2)n1`, the IC50 is at most 1 µM.

Take `Cc1nc(-c2ccc(F)cc2)c(-c2nc(C(=O)NCC#N)cs2)s1`: the half-inhibitory concentration (IC50) is at most 1 µM.

Regarding `COc1ccccc1CNC(=O)c1csc(-c2sc(C)nc2-c2ccc(F)cc2)n1`, the concentration for half-maximal inhibition (IC50) is at most 1 µM. To `CC(C)NC(=O)c1csc(-c2c(-c3ccc(F)cc3)noc2C2CCN(C(=O)CO)CC2)n1` belongs at most 1 µM; to `CC(C)NC(=O)c1csc(-c2oc(CNC(=O)c3cncc(Br)c3)nc2-c2ccc(F)cc2)n1`, at most 1 µM; to `CC(=O)N1CCC(c2onc(-c3ccc(F)cc3)c2-c2nc(C(=O)NC(C)C)cs2)CC1`, at most 1 µM. `Cc1ccc(S(=O)(=O)NCCNCc2nc(-c3ccc(F)cc3)c(-c3nc(C(=O)NC(C)C)cs3)o2)cc1`: the half-maximal inhibitory concentration (IC50) was at most 1 µM. The figure for `CC(C)NC(=O)c1csc(-c2oc(CN3CCN(C(=O)Cc4ccc(C(F)(F)F)cc4)CC3)nc2-c2ccc(F)cc2)n1` is at most 1 µM. To `CC(C)NC(=O)c1csc(-c2oc(CNC(=O)c3c(F)cccc3Cl)nc2-c2ccc(F)cc2)n1` belongs at most 1 µM; to `CC(C)NC(=O)c1csc(-c2oc(CNC(=O)C=Cc3cccc(O)c3)nc2-c2ccc(F)cc2)n1`, at most 1 µM. To `Cc1nc(-c2ccc(F)cc2)c(-c2nc(C(=O)NCc3ccccc3C)cs2)s1` belongs at most 1 µM; to `CC(C)NC(=O)c1csc(-c2c(-c3ccc(F)cc3)noc2CN(C)CCO)n1`, at most 1 µM. `Cc1nc(-c2ccc(F)cc2)c(-c2nc(C(=O)NCCNC(=O)OC(C)(C)C)cs2)s1` yielded an IC50 of at most 1 µM. `CC(C)NC(=O)c1csc(-c2oc(CN3CCN(C(=O)CC4Cc5ccccc5C4)CC3)nc2-c2ccc(F)cc2)n1` gave an IC50 of at most 1 µM. To `CC(C)NC(=O)c1csc(-c2c(-c3ccc(F)cc3)n[nH]c2C2CCN(C(=O)c3ccccc3)CC2)n1` belongs at most 1 µM. To `Cc1nc(-c2ccc(F)cc2)c(-c2nc(C(=O)NCC3(O)CCCCC3)cs2)s1` belongs at most 1 µM; to `Cc1nc(-c2ccc(F)cc2)c(-c2nc(C(=O)NCCO)cs2)s1`, at most 1 µM.

The values are drawn from the Kinase Knowledgebase extract (Sharma et al. 2016).
